Test [1] addresses human tankyrase 1 PARP catalytic domain, TNKS1P (Homo sapiens (Human), UniProt O95271). Briefly: TNKS1 autoparsylation assay (LC/MS detection of nicotinamide). Particulars: read-out: TNKS1 AP IC50, 20 nM enzyme, 250 μM β-NAD+, 60 min.
For test [2], the system named is Non-small lung cancer ABC-1 cells. Briefly: Cellular proliferation assay (CellTiter-Glo). The class given is cell-based. As to conditions: Homo sapiens, 72 h; ABC-1 cells, 3 days of compound treatment; read-out: ABC-1 IC50. A general note: ATP-based viability assays read luminescence as a measure of living cells.
Description: Cellular Proliferation Assay to Determine Compound Inhibition of Cancer Cell Growth
Viable cells were measured after 3 days of compound treatment using the CellTiter-Glo assay (Promega, G7570). Assay was performed following the manufacture protocol.
Test [3] concerns Axin2 protein in SW480 cells. Description: Cellular ELISA assay of Axin2 protein stabilization. Format: cell-based. Particulars: Homo sapiens, 24 hrs, read-out: Axin AC50. Here is the method: Cellular ELISA Assay to Determine Compound Effect on Stabilizing the Axin2 Protein Compound activity in stabilizing the Axin2 protein was measured by Sandwich Enzyme-Linked Immuosorbent (ELISA) assay in the colorectal cell line SW480. 30,000 SW480 cells were seeded per well in 96-well plate and incubated overnight prior to compound treatment. […] Cells were then washed with 100 μL of cold Phosphate Buffer Saline (PBS), and lysed in 125 μl of cold 1× lysis buffer (Cell Signaling Technology, 9803) supplemented with Protease inhibitor (Roche, 11836170) and Phosphatase inhibitors (Sigma, P2850, P5726). For the ELISA assay, anti Axin-2 capture antibody (Strategic Diagnostics) antibody was diluted to a concentration of 1 μg/ml (1:1000) in Carbonate Coating buffer, pH 9.2 (Sigma, C3041-50CAP). […], of the diluted anti Axin-2 capture antibody per well was then used to coat the 96-well ELISA plate (Thermo Electron Corp., MicroLite 1 flat bottom plate #7571) overnight at 4° C. […] After blocking, plates were then washed three times with 300 μl/well of wash solution. 100 μL of prepared SW480 cell lysate was then added to each well and incubated at room temperature for 2 hours while shaking gently. After washing, 100 μL of Biotinylated anti-Axin2 antibody (CST, 2151) was added to each well and incubated room temperature for 2 hours. 100 μL of Streptavidin-HRP (R&D systems, DY998) diluted 1:200 in 1% BSA/PBS was then added in each well and incubate for 30 mins at R/T in the dark.
A general note: In an ELISA, binding on a coated surface is turned into a signal by an enzyme label.

For test [4], the system named is Wnt ligand-induced signaling in HEK293 cells. Briefly: Wnt-responsive Super-TOpFlash (STF) luciferase reporter gene assay. Particulars: Homo sapiens, Wnt3A condition medium. The class given is cell-based. Here is the method:
Cellular Reporter Gene Assay to Determine Compound Inhibition of Wnt Signaling Activity
Compound activity in inhibiting Wnt ligand-induced signaling was measured using a Wnt-responsive Super-TOpFlash (STF) luciferase reporter gene assay in HEK293 cells. On day 1 of the assay, cells were plated at a density of 8000 cells per well of 384-well plate in 25 μl medium containing 5% fetal bovine serum (FBS). On the second day, […] condition medium (CM) produced from mouse L cells was added to the cells to induce Wnt signaling, followed by addition of 5 μL of compounds each well in 10-point serial dilution. On the third day, the luciferase activity was measured by the Bright-Glo™ Luciferase Assay System following manufacture's protocol (Promega, E2620). The Inhibition was calculated as: (Maximum Wnt-induced signaling−Sample)/(Maximum Wnt-induced signaling−Background)*100. “Maximum Wnt-induced signaling” is the STF signal level induced by 20% Wnt3A CM without compound; and “Background” is the STF signal level without the addition of Wnt3A CM or compound.
On the technique in general: A reporter such as luciferase makes a cellular process visible.

The target in test [5] is tankyrase 2 protein PARP domain, TNKS2P (Homo sapiens (Human), UniProt Q9H2K2). Briefly: TNKS2 autoparsylation assay (LC/MS detection of nicotinamide). As to conditions: read-out: TNKS2 AP IC50, 20 nM enzyme, 250 μM β-NAD+, 60 min.
Description: Biochemical Assay to Determine Compound Inhibition of TNKS Enzyme Activity
The autoparsylation activity of the TNKS 1/2 or PARP1/2 enzymes was measured by the liquid chromatography-mass spectrometry (LC/MS) detection of nicotinamide as readout. Compound activity in inhibiting the TNKS and PARP autoparsylation was evaluated by IC50 measurements. […] For the background control wells, 10 μL of the 5× quenching solution per well was added prior to the addition of β-NAD^+. The % Inhibition was calculated as: (Control−Sample)/(Control−Background)*100.

The term IC50 denotes the point on the concentration scale where inhibition reaches its midpoint. For orientation: AC50 means the midpoint of the concentration-response curve, whichever way the signal moves.

human tankyrase 1 PARP catalytic domain, TNKS1P, sequence (O95271 1112-1317): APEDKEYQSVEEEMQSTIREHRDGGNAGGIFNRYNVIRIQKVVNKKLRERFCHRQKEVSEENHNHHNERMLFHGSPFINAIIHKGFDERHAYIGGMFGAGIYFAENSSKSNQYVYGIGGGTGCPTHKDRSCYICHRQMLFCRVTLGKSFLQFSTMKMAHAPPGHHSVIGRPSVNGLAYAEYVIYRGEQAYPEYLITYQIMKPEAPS
tankyrase 2 protein PARP domain, TNKS2P, sequence (Q9H2K2 959-1164): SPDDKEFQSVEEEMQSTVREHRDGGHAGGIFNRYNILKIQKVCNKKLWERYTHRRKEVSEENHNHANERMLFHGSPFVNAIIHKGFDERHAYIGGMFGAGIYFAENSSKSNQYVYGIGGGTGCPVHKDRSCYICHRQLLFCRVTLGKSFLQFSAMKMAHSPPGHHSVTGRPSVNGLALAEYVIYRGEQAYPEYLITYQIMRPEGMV

As for `O=C(CN1CCC(C(=O)c2ccc(F)cc2)CC1)NCc1nc2c(c(=O)[nH]1)COCC2` [Example 1, 2-(4-(4-Fluorobenzoyl)piperidin-1-yl)-N-((4-oxo-4,5,7,8-tetrahydro-3H-pyrano[4,3-d]pyrimidin-2-yl)methyl)acetamide], the figures for the IC50 in test [1] and in test [2] were 64 ± 8 nM and 1050 ± 390 nM, respectively. Besides, the AC50 in test [3] worked out at 880 ± 210 nM.
For `COc1ccc(C(=O)C2CCN(CC(=O)N(Cc3nc4c(c(=O)[nH]3)COCC4)CC3CC3)CC2)cc1` [Example 5, N-Cyclopropylmethyl-2-[4-(4-methoxy-benzoyl)-piperidin-1-yl]-N-(4-oxo-3,5,7,8-tetrahydro-4H-pyrano[4,3-d]pyrimidin-2-ylmethyl)-acetamide], in that order: 15.5 ± 3.5 nM, 32 ± 4 nM and 60 ± 60 nM.
With `COc1ccc(C(=O)C2CCN(CC(=O)NCc3nc4c(c(=O)[nH]3)CCCCC4)CC2)cc1` [Example 6, 2-(4-(4-Methoxybenzoyl)piperidin-1-yl)-N-((4-oxo-4,5,6,7,8,9-hexahydro-3H-cyclohepta[d]pyrimidin-2-yl)methyl)acetamide], the IC50 in test [1] was 575 ± 25 nM; in test [2] it was 484 nM; in test [4], 56 ± 7 nM; in test [5] it was 353 ± 8 nM. In addition, in test [3], the AC50 amounted to 293 ± 8 nM.
For `COc1ccc(C(=O)C2CCN(CC(=O)N(Cc3nc4c(c(=O)[nH]3)CCCCC4)CC3CC3)CC2)cc1` [Example 7, N-(Cyclopropylmethyl)-2-(4-(4-methoxybenzoyl)piperidin-1-yl)-N-((4-oxo-4,5,6,7,8,9-hexahydro-3H-cyclohepta[d]pyrimidin-2-yl)methyl)acetamide], in that order: 714 ± 5 nM, 691 nM, 180 ± 70 nM, 371 ± 3 nM and 680 ± 90 nM.
In the case of `O=C(c1ccc(F)cc1)C1CCN(CC(=O)N(Cc2nc3c(c(=O)[nH]2)COCC3)Cc2cccs2)CC1` [Example 13, 2-(4-(4-Fluorobenzoyl)piperidin-1-yl)-N-((4-oxo-4,5,7,8-tetrahydro-3H-pyrano[4,3-d]pyrimidin-2-yl)methyl)-N-(thiophen-2-ylmethyl)acetamide], the IC50 in test [1] was determined as 15.4 ± 2.3 nM; in test [2], 40 nM. Also, the AC50 in test [3] was determined as 26 ± 8 nM.
For the molecule `O=C(c1ccc(F)cc1)C1CCN(CC(=O)N(Cc2ccccn2)Cc2nc3c(c(=O)[nH]2)COCC3)CC1` [Example 22, 2-(4-(4-Fluorobenzoyl)piperidin-1-yl)-N-((4-oxo-4,5,7,8-tetrahydro-3H-pyrano[4,3-d]pyrimidin-2-yl)methyl)-N-(pyridin-2-ylmethyl)acetamide], the IC50 in test [1] is 120 ± 2 nM; in test [2], 540 ± 280 nM. In addition, the AC50 in test [3] came out at 360 ± 190 nM.
For `CC(C)CN(Cc1nc2c(c(=O)[nH]1)COCC2)C(=O)CN1CCC(C(=O)c2ccc(F)cc2)CC1` [Example 26, 2-(4-(4-Fluorobenzoyl)piperidin-1-yl)-N-isobutyl-N-((4-oxo-4,5,7,8-tetrahydro-3H-pyrano[4,3-d]pyrimidin-2-yl)methyl)acetamide], in that order: 70 ± 7 nM, 545 nM and 473 ± 36 nM.
For `O=C(c1ccc(F)cc1)C1CCN(CC(=O)N(Cc2ccccc2)Cc2nc3c(c(=O)[nH]2)COCC3)CC1` [Example 38, N-Benzyl-2-(4-(4-fluorobenzoyl)piperidin-1-yl)-N-((4-oxo-4,5,7,8-tetrahydro-3H-pyrano[4,3-d]pyrimidin-2-yl)methyl)acetamide], the 50% inhibitory concentration (IC50) in test [1] amounted to 82 ± 1 nM; in test [2] it was 833 nM. Further, the AC50 in test [3] was determined as 372 ± 86 nM.
In the case of `O=C(CN1CCC(c2nnc(-c3ccccc3)o2)CC1)NCc1nc2c(c(=O)[nH]1)COCC2` [Example 52, N-(4-Oxo-3,5,7,8-tetrahydro-4H-pyrano[4,3-d]pyrimidin-2-ylmethyl)-2-[4-(5-phenyl-[1,3,4]oxadiazol-2-yl)-piperidin-1-yl]-acetamide], the IC50 in test [1] was determined as 1190 ± 150 nM; in test [2], 2800 nM; in test [4], 155 ± 8 nM; in test [5], 170 ± 30 nM. The half-maximal activity concentration (AC50) in test [3] stood at 1090 ± 170 nM.
For `COCCN(Cc1nc2c(c(=O)[nH]1)COCC2)C(=O)CN1CCC(c2nnc(-c3ccccc3)o2)CC1` [Example 53] the same measures were 1130 ± 270 nM, 2160 nM, 430 ± 50 nM, 142 ± 19 nM and 2100 ± 200 nM.
On to `O=C(CN1CCC(c2nnc(-c3ccc(F)cc3)o2)CC1)NCc1nc2c(c(=O)[nH]1)COCC2` [Example 55, 2-{4-[5-(4-Fluoro-phenyl)-[1,3,4]oxadiazol-2-yl]piperidin-1-yl}-N-(4-oxo-3,5,7,8-tetrahydro-4H-pyrano[4,3-d]pyrimidin-2-ylmethyl)-acetamide], for which the IC50 in test [1] was 487 ± 16 nM; in test [2], 83 nM; in test [4] it was 4.7 ± 1.8 nM; in test [5] it was 78 ± 4 nM. In addition, the AC50 in test [3] stood at 25 ± 5 nM.
As for `O=C(CN1CCC(c2n[nH]c3cc(F)ccc23)CC1)NCc1nc2c(c(=O)[nH]1)COCC2` [Example 57, 2-[4-(6-Fluoro-1H-indazol-3-yl)-piperidin-1-yl]-N-(4-oxo-3,5,7,8-tetrahydro-4H-pyrano[4,3-d]pyrimidin-2-ylmethyl)acetamide], the IC50 in test [1] amounted to 1210 ± 100 nM; in test [2], 649 nM; in test [4], 207 ± 35 nM; in test [5] it was 270 ± 10 nM.
In the case of `COc1ccc2c(C3CCN(CC(=O)NCc4nc5c(c(=O)[nH]4)COCC5)CC3)n[nH]c2c1` [Example 58, 2-[4-(6-Methoxy-1H-indazol-3-yl)-piperidin-1-yl]-N-(4-oxo-3,5,7,8-tetrahydro-4H-pyrano[4,3-c]pyrimidin-2-ylmethyl)-acetamide], the IC50 was 1490 ± 50 nM in test [1], more than 10000 nM in test [2], 4500 ± 400 nM in test [4] and 311 ± 39 nM in test [5].
For `O=C(CN1CCC(n2cc(-c3ccccc3)cn2)CC1)NCc1nc2c(c(=O)[nH]1)COCC2` [Example 59, N-(4-Oxo-3,5,7,8-tetrahydro-4H-pyrano[4,3-d]pyrimidin-2-ylmethyl)-2-[4-(4-phenyl-pyrazol-1-yl)-piperidin-1-yl]-acetamide] the same measures were 2250 ± 23 nM, 8170 nM, 3940 ± 120 nM and 188 ± 16 nM.
For `COc1ccc(-c2cnn(C3CCN(CC(=O)NCc4nc5c(c(=O)[nH]4)COCC5)CC3)c2)cc1` [Example 60, 2-{4-[4-(4-Methoxy-phenyl)-pyrazol-1-yl]-piperidin-1-yl}-N-(4-oxo-3,5,7,8-tetrahydro-4H-pyrano[4,3-d]pyrimidin-2-ylmethyl)-acetamide], in that order: 3800 ± 100 nM, 5850 nM, 1100 ± 110 nM and 386 ± 7 nM.
With `O=C(CN1CCC2(CC1)Cc1cc(F)ccc1C2=O)N(Cc1nc2c(c(=O)[nH]1)COCC2)CC1CC1` [Example 62, N-(Cyclopropylmethyl)-2-(5-fluoro-1-oxo-1,3-dihydrospiro[indene-2,4′-piperidine]-1′-yl)-N-((4-oxo-4,5,7,8-tetrahydro-3H-pyrano[4,3-d]pyrimidin-2-yl)methyl)acetamide], the IC50 in test [1] turned out to be 17 ± 1 nM; in test [2] it was 470 nM; in test [4] it was 115 ± 17 nM; in test [5], 4 ± 1 nM. Also, the AC50 in test [3] worked out at 560 ± 150 nM.
For the molecule `O=C(c1ccc(C(F)(F)F)cc1)C1CCN(CC(=O)N(Cc2nc3c(c(=O)[nH]2)COCC3)CC(F)F)CC1` [Example 75, N-(2,2-Difluoro-ethyl)-N-(4-oxo-3,5,7,8-tetrahydro-4H-pyrano[4,3-d]pyrimidin-2-ylmethyl)-2-[4-(4-trifluoromethyl-benzoyl)-piperidin-1-yl]-acetamide], the IC50 turned out to be 73 ± 5 nM in test [1], 6050 nM in test [2], 290 ± 130 nM in test [4] and 17 ± 1 nM in test [5].

(Values after patent US9181266B2, “2-piperidin-1-yl-acetamide compounds for use as tankyrase inhibitors” (NOVARTIS AG, priority 2011, dated 2015).)
